PubChem BioAssay AID2060492 (Molecular Pharmacology Branch, DTP, NCI, 2025)

System: 695427-040-R-J1-PDC complex spheroids, viability percent T/C
Test: Anticancer human tumor 695427-040-R-J1-PDC patient-derived colon adenocarcinoma cell line growth inhibition [GQUAD]
Conditions: for IC50: curve of first compound; for viability, T/C: stronger effect = lower value
Summary of the method: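 Tumor cells were grown as complex spheroids with HUVEC endothelial cells and mesenchymal stem cells as stroma. G-quadruplex stabilizers were combined with targeted agents over half-log dilutions from near the clinical Cmax, or from 10 microM.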

[1] = second compound 0.0316 µM, first compound 0.0316 µM
[2] = second compound 0.0316 µM, first compound 0.1 µM
[3] = second compound 0.0316 µM, first compound 0.316 µM
[4] = second compound 0.0316 µM, first compound 1 µM
[5] = second compound 0.0316 µM, first compound 3.16 µM
[6] = second compound 0.0316 µM, first compound 10 µM
[7] = second compound 0.1 µM, first compound 0.0316 µM
[8] = second compound 0.1 µM, first compound 0.1 µM
[9] = second compound 0.1 µM, first compound 0.316 µM
[10] = second compound 0.1 µM, first compound 1 µM
[11] = second compound 0.1 µM, first compound 3.16 µM
[12] = second compound 0.1 µM, first compound 10 µM
[13] = second compound 0.316 µM, first compound 0.0316 µM
[14] = second compound 0.316 µM, first compound 0.1 µM
[15] = second compound 0.316 µM, first compound 0.316 µM
[16] = second compound 0.316 µM, first compound 1 µM
[17] = second compound 0.316 µM, first compound 3.16 µM
[18] = second compound 0.316 µM, first compound 10 µM
[19] = second compound 1 µM, first compound 0.0316 µM
[20] = second compound 1 µM, first compound 0.1 µM
[21] = second compound 1 µM, first compound 0.316 µM
[22] = second compound 1 µM, first compound 1 µM
[23] = second compound 1 µM, first compound 3.16 µM
[24] = second compound 1 µM, first compound 10 µM
[25] = second compound 3.16 µM, first compound 0.0316 µM
[26] = second compound 3.16 µM, first compound 0.1 µM
[27] = second compound 3.16 µM, first compound 0.316 µM
[28] = second compound 3.16 µM, first compound 1 µM
[29] = second compound 3.16 µM, first compound 3.16 µM
[30] = second compound 3.16 µM, first compound 10 µM
[31] = second compound 10 µM, first compound 0.0316 µM
[32] = second compound 10 µM, first compound 0.1 µM
[33] = second compound 10 µM, first compound 0.316 µM
[34] = second compound 10 µM, first compound 1 µM
[35] = second compound 10 µM, first compound 3.16 µM
[36] = second compound 10 µM, first compound 10 µM
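Also: spheroids exposed to compounds for seven days before readout.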

SMILES: COc1cc(C2c3cc4c(cc3C(OC3OC5COC(C)OC5C(O)C3O)C3COC(=O)C23)OCO4)cc(OC)c1O (stereo unspecified) + Cc1cnc(CNC(=O)c2c(=O)c3ccc(N4CCCN(C)CC4)nc3n3c2sc2ccccc23)cn1
- IC50 (second compound 0.0316 µM): > 10000 nM
- IC50 (second compound 0.1 µM): > 10000 nM
- IC50 (second compound 0.316 µM): > 10000 nM
- IC50 (second compound 1 µM): > 10000 nM
- IC50 (second compound 3.16 µM): < 31.6 nM
- IC50 (second compound 10 µM): < 31.6 nM
- viability, T/C [1]: 87.3%
- viability, T/C [2]: 94.9%
- viability, T/C [3]: 92.7%
- viability, T/C [4]: 54.4%
- viability, T/C [5]: 64.1%
- viability, T/C [6]: 60.3%
- viability, T/C [7]: 84.8%
- viability, T/C [8]: 79.2%
- viability, T/C [9]: 70.3%
- viability, T/C [10]: 62.9%
- viability, T/C [11]: 75.5%
- viability, T/C [12]: 65.2%
- viability, T/C [13]: 71.3%
- viability, T/C [14]: 79.2%
- viability, T/C [15]: 70.5%
- viability, T/C [16]: 63%
- viability, T/C [17]: 73%
- viability, T/C [18]: 69.7%
- viability, T/C [19]: 47.5%
- viability, T/C [20]: 74.7%
- viability, T/C [21]: 71.3%
- viability, T/C [22]: 59.8%
- viability, T/C [23]: 70%
- viability, T/C [24]: 55.7%
- viability, T/C [25]: 33.4%
- viability, T/C [26]: 50.7%
- viability, T/C [27]: 46.3%
- viability, T/C [28]: 50%
- viability, T/C [29]: 50.9%
- viability, T/C [30]: 45.7%
- viability, T/C [31]: 38.8%
- viability, T/C [32]: 34.7%
- viability, T/C [33]: 41.8%
- viability, T/C [34]: 45.4%
- viability, T/C [35]: 56%
- viability, T/C [36]: 36.7%

SMILES: Cc1cccc(N(C)C(=O)C2C(O)CCN2c2nc(C)cc(C(F)(F)F)c2C#N)c1 (stereo unspecified) + Cc1cnc(CNC(=O)c2c(=O)c3ccc(N4CCCN(C)CC4)nc3n3c2sc2ccccc23)cn1
- IC50 (second compound 0.0316 µM): > 10000 nM
- IC50 (second compound 0.1 µM): > 10000 nM
- IC50 (second compound 0.316 µM): > 10000 nM
- IC50 (second compound 1 µM): > 10000 nM
- IC50 (second compound 3.16 µM): < 31.6 nM
- IC50 (second compound 10 µM): < 31.6 nM
- viability, T/C [1]: 110%
- viability, T/C [2]: 92.5%
- viability, T/C [3]: 76.6%
- viability, T/C [4]: 78.7%
- viability, T/C [5]: 87.5%
- viability, T/C [6]: 62.9%
- viability, T/C [7]: 87%
- viability, T/C [8]: 80%
- viability, T/C [9]: 102%
- viability, T/C [10]: 71%
- viability, T/C [11]: 87.9%
- viability, T/C [12]: 79.1%
- viability, T/C [13]: 72.5%
- viability, T/C [14]: 78.4%
- viability, T/C [15]: 51.4%
- viability, T/C [16]: 74.7%
- viability, T/C [17]: 77.5%
- viability, T/C [18]: 69.9%
- viability, T/C [19]: 62.1%
- viability, T/C [20]: 57.7%
- viability, T/C [21]: 57.8%
- viability, T/C [22]: 56.9%
- viability, T/C [23]: 83%
- viability, T/C [24]: 60.7%
- viability, T/C [25]: 38.8%
- viability, T/C [26]: 47%
- viability, T/C [27]: 54.8%
- viability, T/C [28]: 51.2%
- viability, T/C [29]: 67.8%
- viability, T/C [30]: 50.9%
- viability, T/C [31]: 32.1%
- viability, T/C [32]: 40%
- viability, T/C [33]: 46.6%
- viability, T/C [34]: 47.1%
- viability, T/C [35]: 59.5%
- viability, T/C [36]: 42.5%

SMILES: Cn1ncnc1[C@H]1c2n[nH]c(=O)c3cc(F)cc(c23)N[C@@H]1c1ccc(F)cc1 + Cc1cnc(CNC(=O)c2c(=O)c3ccc(N4CCCN(C)CC4)nc3n3c2sc2ccccc23)cn1
- IC50 (second compound 0.0316 µM): > 316 nM
- IC50 (second compound 0.1 µM): > 316 nM
- IC50 (second compound 0.316 µM): > 316 nM
- IC50 (second compound 1 µM): > 316 nM
- IC50 (second compound 3.16 µM): > 316 nM
- IC50 (second compound 10 µM): < 0.999 nM
- viability, T/C (second compound 0.0316 µM, first compound 0.000999 µM): 98.9%
- viability, T/C (second compound 0.0316 µM, first compound 0.00316 µM): 84.2%
- viability, T/C (second compound 0.0316 µM, first compound 0.00999 µM): 96.4%
- viability, T/C [1]: 66.4%
- viability, T/C (second compound 0.0316 µM, first compound 0.0999 µM): 86.2%
- viability, T/C [3]: 71.7%
- viability, T/C (second compound 0.1 µM, first compound 0.000999 µM): 93.5%
- viability, T/C (second compound 0.1 µM, first compound 0.00316 µM): 101%
- viability, T/C (second compound 0.1 µM, first compound 0.00999 µM): 87.5%
- viability, T/C [7]: 62.9%
- viability, T/C (second compound 0.1 µM, first compound 0.0999 µM): 91.8%
- viability, T/C [9]: 60.6%
- viability, T/C (second compound 0.316 µM, first compound 0.000999 µM): 65.7%
- viability, T/C (second compound 0.316 µM, first compound 0.00316 µM): 83.5%
- viability, T/C (second compound 0.316 µM, first compound 0.00999 µM): 88.1%
- viability, T/C [13]: 71.5%
- viability, T/C (second compound 0.316 µM, first compound 0.0999 µM): 66%
- viability, T/C [15]: 66%
- viability, T/C (second compound 1 µM, first compound 0.000999 µM): 53.7%
- viability, T/C (second compound 1 µM, first compound 0.00316 µM): 53.9%
- viability, T/C (second compound 1 µM, first compound 0.00999 µM): 60.7%
- viability, T/C [19]: 55.9%
- viability, T/C (second compound 1 µM, first compound 0.0999 µM): 82.5%
- viability, T/C [21]: 56.5%
- viability, T/C (second compound 3.16 µM, first compound 0.000999 µM): 51.6%
- viability, T/C (second compound 3.16 µM, first compound 0.00316 µM): 48.7%
- viability, T/C (second compound 3.16 µM, first compound 0.00999 µM): 53%
- viability, T/C [25]: 62.1%
- viability, T/C (second compound 3.16 µM, first compound 0.0999 µM): 63.3%
- viability, T/C [27]: 46.5%
- viability, T/C (second compound 10 µM, first compound 0.000999 µM): 37.8%
- viability, T/C (second compound 10 µM, first compound 0.00316 µM): 44.7%
- viability, T/C (second compound 10 µM, first compound 0.00999 µM): 58.2%
- viability, T/C [31]: 47.7%
- viability, T/C (second compound 10 µM, first compound 0.0999 µM): 58.5%
- viability, T/C [33]: 40.1%
